Consider 23 compounds from article PMC7822874, “Chemoprotective antimalarials identified through quantitative high-throughput screening of Plasmodium blood and liver stage parasites” (Scientific Reports, 2021).

Several values for one entry are separate records, joined by “and”; a condition that tells them apart may be missing. Equal values may be shown once. Read-outs that look alike come from different tables or passages of the source.

Test [1] deals with luciferase-expressing P. berghei liver stage parasites in HepG2 cells. Nature of the test: Inhibition of liver-stage development assay (ILSDA), Method 2 (WRAIR, 96-well). It is filed as cell-based, Plasmodium berghei. The note with it: for Activity direction (Decrease / Inactive): P. berghei liver stage; for AC50: Plasmodium berghei.
For test [2], the system named is P. falciparum Dd2 Cytb V259L. Nature of the test: SYBR Green ABS proliferation assay, NCGC00473217 selected clone F06. The format is cell-based, Plasmodium falciparum. More on the design: log AC50, mean: unit: log M. The conditions noted are these: third value triple, c9, […]; for AC50: Plasmodium falciparum, DD2, cytochrome b mutant line, read-out: log AC50, mean (converted); for log AC50, mean: cytochrome b mutant line. The gist of the method: (§1)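 Asexual blood-stage proliferation of cytochrome b-mutant Dd2 clones after 72 h compound exposure at 37 °C in low-oxygen gas, quantified as control-normalized SYBR Green-I fluorescence; differences tested by two-sided t-test.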

Test [3] relates to P. falciparum Dd2 Cytb G131S. As to the kind of experiment: SYBR Green ABS proliferation assay, NCGC00374598 selected clone C11. It is filed as cell-based, Plasmodium falciparum. The note with it: second value triple, c6, […]; for AC50: Plasmodium falciparum, DD2, cytochrome b mutant line, read-out: log AC50, mean (converted); for log AC50, mean: cytochrome b mutant line. The gist of the method: as §1

In test [4] the test system is P. falciparum Dd2 Cytb F123L. Nature of the test: SYBR Green ABS proliferation assay, NCGC00473217 selected clone G08. The format is cell-based, Plasmodium falciparum. More on the design: log AC50, mean: unit: log10(M). The note with it: fifth value triple, c15, […]; for AC50: Plasmodium falciparum, DD2, cytochrome b mutant line, read-out: log AC50, mean (converted); for log AC50, mean: cytochrome b mutant line. The gist of the method: as §1

Test [5] relates to P. falciparum Dd2 Cytb A122D. As to the kind of experiment: SYBR Green ABS proliferation assay, NCGC00473217 selected clone F12. It is filed as cell-based, Plasmodium falciparum. More on the design: log AC50, mean: unit: Log[M]. The note with it: fourth value triple, c12, […]; for AC50: Plasmodium falciparum, DD2, cytochrome b mutant line, read-out: log AC50, mean (converted); for log AC50, mean: cytochrome b mutant line. The method in brief: as §1

The test system of test [6] is Plasmodium falciparum Dd2 asexual blood stage parasites. As to the kind of experiment: microbe, parasite or virus in culture. Further details: species or system Plasmodium falciparum Dd2 in human erythrocytes; single determination (one 11-point concentration-response curve); call rule not given here. The note with it: Plasmodium falciparum, DD2, Erythrocyte, 72 h; read-out: AC50.
Test [7] has as its system T1, Plasmodium falciparum Dd2-attB (parental line), asexual blood stages.
T1 construct: Dd2-attB, the isogenic parental line
Nature of the test: microbe, parasite or virus in culture. More on the design: replicate k of 3 (each line is one of three independent assays; the three lines of one compound and parasite line follow each other). The conditions noted are these: n = 1; for Individual replicates / Log AC50 (M): 72 h. The gist of the method:
(§2)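 We compare activity in parasites carrying fumarate-using yeast DHODH with that in the parental line; mETC or parasite DHODH inhibitors are bypassed by this enzyme. Data come from three independent assays, analysed by two-sided Student's t-tests.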

Test [8] deals with T2, Plasmodium falciparum Dd2-attB-ScDHODH (transgenic line expressing yeast DHODH), asexual blood stages.
T2 construct: Dd2-attB-ScDHODH, the transgenic line that expresses yeast DHODH
As to the kind of experiment: organism not typed. More on the design: replicate k of 3 (each line is one of three independent assays; the three lines of one compound and parasite line follow each other). The note with it: 72 h, n = 1. The gist of the method:
as §2

The mark [9] stands for this setting: HepG2, P. berghei liver stage, Method 2, dose response, read-out: AC50.
Where [10] appears, read: HepG2, P. berghei liver stage, Method 2, dose response, read-out: Log AC50 (converted).

In the case of `O=[S+]([O-])(c1cccs1)N1CCc2nc(C3CC3)nc(-c3ccc(Cl)cc3)c2CC1` [NCGC00476969-01], in test [1] (Method 2, dose response), the “Activity direction (Decrease / Inactive)” value is recorded as “Inactive”. In addition, the AC50 in test [2] is 11.9 µM; in test [3], 7.78 µM; in test [4], 12.3 µM; in test [5], 13.8 µM.

`c1ccc(OCCNc2nc(-c3cccnc3)nc3c2CCNCC3)cc1` [NCGC00443183-01]: the “Activity direction (Decrease / Inactive)” value in test [1] (Method 2, dose response) was “Inactive”. The AC50 in test [2] was 5.73 µM; in test [3], 6.93 µM; in test [4], 5.11 µM; in test [5], 7.21 µM.

Take `CCc1nc2c(c(-c3ccc(O)cc3)n1)CCN(Cc1ccc(OC(F)(F)F)cc1)CC2` [NCGC00480301-01]: the “Activity direction (Decrease / Inactive)” value in test [1] (Method 2, dose response) is recorded as “Inactive”. The AC50 in test [2] is 5.73 µM; in test [3], 5.11 µM; in test [6], 1.5 µM; in test [4] it was 7.78 µM; in test [5], 6.18 µM.

On to `COc1ccc(-c2nc(C3CC3)nc3c2CCN(Cc2cc(C)on2)CC3)cc1` [NCGC00374666-01], for which the “Max Resp (signal direction of the dose response)” value in test [1] (Method 2, Decrease = decreasing P. berghei viability with dose, Increase = increasing signal, Inactive = no dose response) was “Decrease”. Also, the AC50 in test [1] (HepG2, Method 2, Hill fit, 50% of maximum activity response, read-out: AC50) was 0.794 µM; in test [1] (HepG2, Method 2, log10 of molar AC50 from Hill fit, read-out: Log AC50 (converted)), 0.794 µM; in test [2] it was 8.09 µM; in test [3], 8.09 µM; in test [4] it was 5.31 µM; in test [5], 6.93 µM.

Regarding `CCCN1C(c2ccccc2)=NS(=O)(=O)c2cc(NC(=O)c3ccc(F)cc3)ccc21` [NCGC00532331-01], in test [1] (Method 2, dose response), the “Activity direction (Decrease / Inactive)” value is recorded as “Decrease”. Further, the AC50 in test [1] (setting [9]) is 17.8 µM; in test [1] (setting [10]), 17.8 µM; in test [2], 2.33 µM; in test [3], 0.71 µM; in test [4] it was 3.3 µM; in test [5], 1.85 µM.

As for `CN(C)c1nc2c(c(=O)[nH]1)CCN(Cc1ccc(F)cc1Cl)CC2` [NCGC00440505-01], the AC50 is 10.2 µM in test [2]; 6.18 µM in test [3]; 10.6 µM in test [6]; 1.74 µM in test [4]; 5.51 µM in test [5].

`CN(C)c1nc2c(c(=O)[nH]1)CCN(Cc1ccccc1Br)CC2` [NCGC00440591-01]: the AC50 in test [2] was 13.3 µM; in test [3], 6.93 µM; in test [6], 9.44 µM; in test [4] it was 1.44 µM; in test [5], 5.73 µM.

Consider `O=C(O)C(F)(F)F.Oc1ccc(-c2nc(C3CC3)nc3c2CCN(CC2CCCCC2)CC3)cc1` [NCGC00480361-02], for which the “Individual replicates / Log AC50 (M)” value in test [7] was -5.2486 Log AC50 (M); in test [8], -5.0486 Log AC50 (M) and -5.1986 Log AC50 (M). Moreover, the “log AC50, mean” value in test [2] is on record as -5.515; in test [3] it was -5.282; in test [4], -6.465; in test [5], -5.499.

For the compound `O=c1[nH]c(N2CCOCC2)nc2c1CCN(Cc1ccccc1C(F)(F)F)CC2` [NCGC00440637-01], the AC50 is 8.09 µM in test [2]; 3.61 µM in test [3]; 4.73 µM in test [6]; 0.618 µM in test [4]; 2.66 µM in test [5].

For the compound `O=c1[nH]c(N2CCOCC2)nc2c1CCN(Cc1cc(F)c(F)cc1F)CC2` [NCGC00440659-01], in test [1] (Method 2, dose response), the “Activity direction (Decrease / Inactive)” value is on record as “Inactive”. Further, the AC50 in test [2] is 18.1 µM; in test [3], 11.4 µM; in test [6] it was 15 µM; in test [4], 4.91 µM; in test [5] it was 17.4 µM.

Take `CCCN1C(c2ccccc2)=NS(=O)(=O)c2cc(NC(=O)c3cccs3)ccc21` [NCGC00532332-01]: the “Activity direction (Decrease / Inactive)” value in test [1] (Method 2, dose response) is listed as “Decrease”. Also, the AC50 was 0.035 µM in test [1] (setting [9]); 0.0355 µM in test [1] (setting [10]); 4.32 µM in test [2]; 0.861 µM in test [3]; 2 µM in test [4]; 1.53 µM in test [5].

On to `O=c1[nH]c(N2CCOCC2)nc2c1CCN(Cc1ccccc1Br)CC2` [NCGC00440625-01], for which the AC50 was 9.44 µM in test [2]; 6.43 µM in test [3]; 15 µM in test [6]; 1.19 µM in test [4]; 6.93 µM in test [5].

On to `O=c1[nH]c(N2CCOCC2)nc2c1CCN(Cc1cc(Br)ccc1F)CC2` [NCGC00440663-01], for which the AC50 was 23.7 µM in test [2]; 6.68 µM in test [3]; 5.31 µM in test [6]; 3.61 µM in test [4]; 4.91 µM in test [5].

Regarding `CC(C)c1nc2c(c(-c3ccc(O)cc3)n1)CCN(Cc1cccc3ccccc13)CC2` [NCGC00480323-01], the “Activity direction (Decrease / Inactive)” value in test [1] (Method 2, dose response) is recorded as “Inactive”. The AC50 in test [2] was 4.55 µM; in test [3] it was 4.06 µM; in test [4] it was 4.22 µM; in test [5] it was 4.73 µM.

Regarding `CN(C)c1nc2c(c(=O)[nH]1)CCN(Cc1ccc(Br)cc1)CC2` [NCGC00440593-01], the AC50 was 9.79 µM in test [2]; 5.51 µM in test [3]; 13.3 µM in test [6]; 1.33 µM in test [4]; 4.55 µM in test [5].

As to `CC(C)c1nc2c(c(-c3ccc(O)cc3)n1)CCN(Cc1ccc(OC(F)(F)F)cc1)CC2` [NCGC00480325-01], the AC50 in test [2] was 8.73 µM; in test [3], 5.31 µM; in test [6], 2.99 µM; in test [4], 6.68 µM; in test [5] it was 6.43 µM.

For `Oc1ccc(-c2nc(C3CC3)nc3c2CCN(Cc2ccc(F)cc2)CC3)cc1` [NCGC00480352-01], the “Individual replicates / Log AC50 (M)” value in test [7] is -5.2986 Log AC50 (M) and -5.2486 Log AC50 (M); in test [8] it was -5.1486 Log AC50 (M) (2×) and -5.1986 Log AC50 (M). The AC50 was 5.64 µM in test [7] (Plasmodium falciparum, DD2, 72 h, read-out: Individual replicates / Log AC50 (converted)); 7.5 µM in test [2]; 7.78 µM in test [3]; 6.93 µM in test [4]. Moreover, the “log AC50, mean” value in test [5] is -4.975.

On to `COc1ccc(-c2nc(C3CC3)nc3c2CCN(Cc2cccnc2)CC3)cc1` [NCGC00476959-01], for which the AC50 in test [2] was 18.1 µM; in test [3], 13.3 µM; in test [6], 13.3 µM; in test [4], 13.8 µM; in test [5], 19.5 µM.

Regarding `CCc1nc2c(c(-c3ccc(O)cc3)n1)CCN(Cc1ccc(OC)cc1)CC2` [NCGC00480297-01], the AC50 in test [2] is 5.11 µM; in test [3], 5.11 µM; in test [6], 6.68 µM; in test [4] it was 5.31 µM; in test [5], 6.18 µM.

For the compound `O=C(c1ccc(C(F)(F)F)cc1)N1CCc2nc(C3CC3)nc(-c3ccc(Cl)cc3)c2CC1` [NCGC00476963-01], the AC50 in test [2] was 15.8 µM; in test [3] it was 12.8 µM; in test [6], 13.3 µM; in test [4], 8.41 µM; in test [5], 15 µM.

As to `Cc1ccc(CN2CCc3nc(C4CC4)nc(-c4ccc(O)cc4)c3CC2)cc1` [NCGC00480348-01], the AC50 in test [2] was 6.93 µM; in test [3], 7.21 µM; in test [6], 4.73 µM; in test [4], 6.68 µM; in test [5], 7.78 µM.

For the compound `CC(C)c1nc2c(c(-c3ccc(O)cc3)n1)CCN(CC1CCCCC1)CC2` [NCGC00480317-01], the AC50 in test [2] is 5.73 µM; in test [3], 5.73 µM; in test [6], 4.73 µM; in test [4] it was 5.11 µM; in test [5], 8.41 µM.

In the case of `O=C(O)C(F)(F)F.Oc1ccc(-c2nc(C3CC3)nc3c2CCN(Cc2ccc(F)cc2)CC3)cc1` [NCGC00480352-02], the “Individual replicates / Log AC50 (M)” value in test [7] is -4.9986 Log AC50 (M) and -5.0986 Log AC50 (M) (2×); in test [8], -5.0486 Log AC50 (M) (2×) and -4.8486 Log AC50 (M). The “log AC50, mean” value in test [2] is recorded as -5.399; in test [3], -5.315; in test [4] it was -5.432; in test [5], -5.349.
